The target of one test is EGFRΔ19del/T790M/C797S (Homo sapiens, UniProt P00533, T790M/C797S, form not given). As to the kind of experiment: EGFR Δ19del/T790M/C797S kinase test (mobility variation analysis, Caliper EZ Reader). The test is classed as biochemical. To be noted: kinase enzymatic activity, Table 1. In a few lines: (§1)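 Kinase pre-incubated with compound 10 minutes at room temperature, then ATP plus peptide substrate added; substrate conversion read by mobility shift after stop solution. Percent inhibition normalized to no-compound and no-enzyme controls; IC50 from variable-slope log(inhibitor) fit.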

Test [1] deals with Ba/F3 cells with EGFR Δ19del/T790M/C797S mutation gene stably overexpressed (Homo sapiens, UniProt P00533, T790M/C797S, cells depend on it, form not given). As to the kind of experiment: Ba/F3-Δ19del/T790M/C797S cell proliferation assay (CellTiter Glo, 72 hours). The class given is cell-based. The following applies: Table 2, read-out: EGFR Δ19del/T790M/C797S IC50. The essentials:
(§2)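 Ba/F3 cells stably overexpressing wild-type EGFR or EGFR Δ19del/T790M/C797S were seeded at 2000 cells/well and incubated 72 h with compound. Viability was read by CellTiter-Glo luminescence, and IC50 came from a four-parameter logistic fit of signal against log concentration.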

The target of another test is IGF1R (Homo sapiens, UniProt P08069). As to the kind of experiment: IGF1R kinase test (mobility variation analysis, Caliper EZ Reader). The class given is biochemical. To be noted: kinase enzymatic activity, Table 1; read-out: EGFR IGF1R IC50. In a few lines: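 Kinase preincubated 10 min at room temperature with compound (10-point 3-fold series, top 3000 nM), then ATP and substrate added and reacted at room temperature. Substrate conversion read by mobility-shift (Caliper EZ Reader); % inhibition vs no-enzyme and no-compound controls fitted to variable-slope curve for IC50.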
IGF1R, sequence (P08069 31-1367, species assumed): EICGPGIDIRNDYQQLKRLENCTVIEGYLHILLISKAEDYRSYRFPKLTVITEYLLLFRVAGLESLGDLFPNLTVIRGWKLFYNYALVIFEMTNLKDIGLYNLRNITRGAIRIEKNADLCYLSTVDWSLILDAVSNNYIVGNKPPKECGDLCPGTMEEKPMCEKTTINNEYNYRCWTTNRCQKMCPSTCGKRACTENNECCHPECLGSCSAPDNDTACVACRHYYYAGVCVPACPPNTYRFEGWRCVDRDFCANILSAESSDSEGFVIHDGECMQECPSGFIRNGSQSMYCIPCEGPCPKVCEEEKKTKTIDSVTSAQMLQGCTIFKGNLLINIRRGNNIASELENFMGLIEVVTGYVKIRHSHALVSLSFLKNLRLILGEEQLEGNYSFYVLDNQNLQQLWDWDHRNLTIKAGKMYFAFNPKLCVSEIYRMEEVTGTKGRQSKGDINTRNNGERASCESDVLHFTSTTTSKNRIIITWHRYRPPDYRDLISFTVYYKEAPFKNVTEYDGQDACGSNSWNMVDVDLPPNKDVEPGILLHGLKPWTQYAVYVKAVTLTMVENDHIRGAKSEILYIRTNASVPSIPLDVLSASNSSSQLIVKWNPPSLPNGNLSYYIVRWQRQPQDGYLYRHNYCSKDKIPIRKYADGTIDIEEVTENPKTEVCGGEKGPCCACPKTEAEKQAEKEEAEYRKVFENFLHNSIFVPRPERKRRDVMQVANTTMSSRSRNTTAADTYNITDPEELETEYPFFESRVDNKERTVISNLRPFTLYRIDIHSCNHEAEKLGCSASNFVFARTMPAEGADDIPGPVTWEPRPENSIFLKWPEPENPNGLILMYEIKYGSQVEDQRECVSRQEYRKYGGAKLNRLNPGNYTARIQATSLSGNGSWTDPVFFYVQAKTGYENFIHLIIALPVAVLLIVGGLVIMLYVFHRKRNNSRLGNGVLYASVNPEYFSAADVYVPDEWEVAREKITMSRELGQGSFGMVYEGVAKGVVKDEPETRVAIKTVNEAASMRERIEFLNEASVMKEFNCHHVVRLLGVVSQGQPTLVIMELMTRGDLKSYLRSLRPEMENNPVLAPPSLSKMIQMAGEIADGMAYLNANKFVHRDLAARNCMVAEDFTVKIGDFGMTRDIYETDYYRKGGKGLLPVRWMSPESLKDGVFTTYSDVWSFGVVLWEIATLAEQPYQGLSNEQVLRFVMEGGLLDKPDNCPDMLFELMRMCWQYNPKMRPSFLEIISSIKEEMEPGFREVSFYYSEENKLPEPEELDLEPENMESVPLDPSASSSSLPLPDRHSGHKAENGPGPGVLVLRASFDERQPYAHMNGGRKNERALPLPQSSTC

A further test concerns A431. Nature of the test: A431 cell proliferation assay (CellTiter Glo, 72 hours). The test is classed as cell-based. The following applies: cell proliferation, A431, 72 hours, Table 2, read-out: A431 IC50. In a few lines:
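A431 cells (2000/well) exposed 72 h to compound at 1000 nM down to 0.2 nM in 3-fold steps, 0.1% DMSO (0.5% for some series). Viability by CellTiter-Glo luminescence; IC50 by four-parameter nonlinear regression.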
A general note: In ATP-based viability assays light output follows the ATP content of the culture.

For test [2], the target named is Ba/F3-EGFR wild-type cell line (Homo sapiens, UniProt P00533). Nature of the test: Ba/F3-EGFR wild-type cell proliferation assay (CellTiter Glo, 72 hours). The class given is cell-based. To be noted: Table 2, read-out: EGFR WT IC50. In a few lines:
as §2

A further test has as its target EGFR WT (Homo sapiens, UniProt P00533). As to the kind of experiment: EGFR WT kinase test (mobility variation analysis, Caliper EZ Reader). The test is classed as biochemical. The following applies: kinase enzymatic activity, Table 1. The essentials:
as §1

Read-outs that look alike come from different tables or passages of the source.

Ba/F3-EGFR wild-type cell line, sequence (P00533 whole entry, change not shown): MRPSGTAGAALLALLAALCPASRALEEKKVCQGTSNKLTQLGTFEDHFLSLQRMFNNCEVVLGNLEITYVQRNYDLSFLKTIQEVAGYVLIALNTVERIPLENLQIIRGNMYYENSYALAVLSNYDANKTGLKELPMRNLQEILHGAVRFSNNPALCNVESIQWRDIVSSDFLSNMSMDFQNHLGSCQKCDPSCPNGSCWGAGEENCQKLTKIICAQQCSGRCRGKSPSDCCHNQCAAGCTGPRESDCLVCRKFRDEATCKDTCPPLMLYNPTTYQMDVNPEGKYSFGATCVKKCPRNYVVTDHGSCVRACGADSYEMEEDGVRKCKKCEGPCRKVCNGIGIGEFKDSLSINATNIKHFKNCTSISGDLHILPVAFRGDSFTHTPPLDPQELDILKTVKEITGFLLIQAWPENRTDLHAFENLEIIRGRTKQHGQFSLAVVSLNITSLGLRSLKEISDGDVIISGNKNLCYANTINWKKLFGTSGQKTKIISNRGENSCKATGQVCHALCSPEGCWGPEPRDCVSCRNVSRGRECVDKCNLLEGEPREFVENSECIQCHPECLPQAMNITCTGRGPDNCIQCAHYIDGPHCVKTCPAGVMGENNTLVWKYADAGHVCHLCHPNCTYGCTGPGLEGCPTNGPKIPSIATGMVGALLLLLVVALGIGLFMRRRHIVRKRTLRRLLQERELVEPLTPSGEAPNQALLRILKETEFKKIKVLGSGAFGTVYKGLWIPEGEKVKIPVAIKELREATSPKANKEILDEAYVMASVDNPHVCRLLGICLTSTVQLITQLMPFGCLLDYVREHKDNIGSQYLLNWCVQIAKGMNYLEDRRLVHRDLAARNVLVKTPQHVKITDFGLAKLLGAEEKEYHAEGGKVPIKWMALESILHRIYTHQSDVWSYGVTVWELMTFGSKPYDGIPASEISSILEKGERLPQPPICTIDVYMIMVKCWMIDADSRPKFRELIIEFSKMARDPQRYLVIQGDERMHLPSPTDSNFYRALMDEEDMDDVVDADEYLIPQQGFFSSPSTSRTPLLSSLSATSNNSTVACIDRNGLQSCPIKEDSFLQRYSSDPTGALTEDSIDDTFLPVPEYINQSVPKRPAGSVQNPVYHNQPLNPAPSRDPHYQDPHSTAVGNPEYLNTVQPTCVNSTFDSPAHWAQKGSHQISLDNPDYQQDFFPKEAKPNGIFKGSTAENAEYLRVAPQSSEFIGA
EGFR WT, sequence (P00533 25-1210): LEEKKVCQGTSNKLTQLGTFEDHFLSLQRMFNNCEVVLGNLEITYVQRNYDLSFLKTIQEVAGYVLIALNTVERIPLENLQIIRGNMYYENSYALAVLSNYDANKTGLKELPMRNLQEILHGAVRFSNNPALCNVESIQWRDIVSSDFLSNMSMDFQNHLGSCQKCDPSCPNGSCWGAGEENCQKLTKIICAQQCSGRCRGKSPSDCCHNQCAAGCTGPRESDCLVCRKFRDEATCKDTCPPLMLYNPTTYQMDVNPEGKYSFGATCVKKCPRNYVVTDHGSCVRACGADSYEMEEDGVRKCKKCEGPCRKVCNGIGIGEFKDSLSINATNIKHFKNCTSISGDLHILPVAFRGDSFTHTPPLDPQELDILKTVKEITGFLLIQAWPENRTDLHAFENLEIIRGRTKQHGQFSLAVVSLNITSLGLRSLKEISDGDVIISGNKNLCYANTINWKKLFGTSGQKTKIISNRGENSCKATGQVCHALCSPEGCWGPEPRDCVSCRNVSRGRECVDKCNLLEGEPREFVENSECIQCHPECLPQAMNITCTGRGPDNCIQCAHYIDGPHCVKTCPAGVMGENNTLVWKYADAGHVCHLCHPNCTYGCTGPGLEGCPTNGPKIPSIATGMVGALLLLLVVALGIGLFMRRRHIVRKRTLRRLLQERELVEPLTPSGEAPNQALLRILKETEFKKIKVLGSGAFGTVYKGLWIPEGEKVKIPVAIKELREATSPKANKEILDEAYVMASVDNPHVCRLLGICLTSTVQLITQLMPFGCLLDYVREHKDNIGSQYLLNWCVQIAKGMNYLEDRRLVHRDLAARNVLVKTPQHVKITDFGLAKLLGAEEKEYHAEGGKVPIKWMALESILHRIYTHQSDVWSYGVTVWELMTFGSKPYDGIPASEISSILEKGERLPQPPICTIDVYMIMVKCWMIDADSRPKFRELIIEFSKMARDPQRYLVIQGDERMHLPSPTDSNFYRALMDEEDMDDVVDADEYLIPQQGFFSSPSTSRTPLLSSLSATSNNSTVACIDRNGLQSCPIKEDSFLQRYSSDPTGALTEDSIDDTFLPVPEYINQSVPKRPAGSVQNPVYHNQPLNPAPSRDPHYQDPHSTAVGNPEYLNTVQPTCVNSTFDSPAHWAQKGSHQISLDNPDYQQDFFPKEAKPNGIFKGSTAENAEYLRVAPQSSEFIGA
Ba/F3 cells with EGFR Δ19del/T790M/C797S mutation gene stably overexpressed, sequence (P00533 with tags, fused parts or gaps DEL746-750/T790M/C797S, form open): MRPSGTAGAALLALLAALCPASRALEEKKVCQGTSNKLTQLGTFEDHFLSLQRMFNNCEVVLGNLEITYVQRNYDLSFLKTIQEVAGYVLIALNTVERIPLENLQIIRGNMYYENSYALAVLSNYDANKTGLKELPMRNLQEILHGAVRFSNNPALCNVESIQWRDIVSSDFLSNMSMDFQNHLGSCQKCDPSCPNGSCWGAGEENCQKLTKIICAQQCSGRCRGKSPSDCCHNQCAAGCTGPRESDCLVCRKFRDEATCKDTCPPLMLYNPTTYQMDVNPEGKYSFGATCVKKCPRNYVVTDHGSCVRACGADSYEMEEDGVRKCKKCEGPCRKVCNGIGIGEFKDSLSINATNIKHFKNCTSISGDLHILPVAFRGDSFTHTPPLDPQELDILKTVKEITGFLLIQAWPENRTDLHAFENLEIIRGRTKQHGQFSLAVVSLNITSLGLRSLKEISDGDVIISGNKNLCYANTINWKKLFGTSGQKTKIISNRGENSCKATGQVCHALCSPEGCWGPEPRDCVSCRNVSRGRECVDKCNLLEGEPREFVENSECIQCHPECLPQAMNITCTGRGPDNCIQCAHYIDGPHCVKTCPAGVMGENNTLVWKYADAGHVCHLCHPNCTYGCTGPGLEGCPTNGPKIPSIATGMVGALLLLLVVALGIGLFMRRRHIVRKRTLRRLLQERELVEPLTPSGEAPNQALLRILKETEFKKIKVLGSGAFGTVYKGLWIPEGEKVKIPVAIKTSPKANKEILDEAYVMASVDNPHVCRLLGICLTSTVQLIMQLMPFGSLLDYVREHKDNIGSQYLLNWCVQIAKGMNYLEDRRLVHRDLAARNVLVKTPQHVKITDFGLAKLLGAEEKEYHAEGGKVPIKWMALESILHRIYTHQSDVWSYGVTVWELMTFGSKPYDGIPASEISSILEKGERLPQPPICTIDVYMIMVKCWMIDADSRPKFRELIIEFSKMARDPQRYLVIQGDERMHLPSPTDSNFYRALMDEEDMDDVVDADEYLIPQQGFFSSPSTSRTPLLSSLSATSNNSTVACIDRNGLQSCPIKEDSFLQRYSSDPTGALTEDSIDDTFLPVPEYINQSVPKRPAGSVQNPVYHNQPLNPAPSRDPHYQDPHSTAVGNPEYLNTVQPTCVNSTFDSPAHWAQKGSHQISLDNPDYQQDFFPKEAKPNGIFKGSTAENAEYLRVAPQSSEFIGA

Turning to `COc1cc(Nc2ncc(Br)c(Nc3ccc(-c4ccc(C)cn4)cc3P(C)(C)=O)n2)c(C)cc1N1CCOCC1` [Compound K-032, (2-((5-Bromo-2-((5-methoxy-2-methyl-4-morpholinophenyl)amino)pyrimidin-4-yl)amino)-5-(5-methylpyridin-2-yl)phenyl)dimethylphosphine oxide], the IC50 is 0.3 nM at EGFRΔ19del/T790M/C797S; 106 nM on IGF1R; 1340 nM in the test with A431 (Homo sapiens, A-431, 72 h); 55.2 nM against EGFR WT. The results for the GI50 in test [1] and in test [2] were 4.8 nM and 128 nM, respectively.
Regarding `CCc1cc(Nc2ncc(Br)c(Nc3ccc(-n4cc(OC)cn4)cc3P(C)(C)=O)n2)c(OC)cc1N1CCC(N2CCCCC2)CC1` [Compound K-020], the IC50 against EGFRΔ19del/T790M/C797S came out at 0.3 nM; on IGF1R it was 126 nM; in the test with A431 (Homo sapiens, A-431, 72 h) it was 1130 nM; on EGFR WT, 22 nM. Besides, the figures for the GI50 in test [1] and in test [2] were 9.2 nM and 226 nM, respectively.
`CCc1cc(Nc2ncc(Br)c(Nc3ccc(-c4cnn(C)n4)cc3P(C)(C)=O)n2)c(OC)cc1N1CCC(N2CCOCC2)CC1` [Compound K-040, (2-((5-Bromo-2-((5-ethyl-2-methoxy-4-(4-morpholinopiperidin-1-yl)phenyl)amino)pyrimidin-4-yl)amino)-5-(2-methyl-2H-1,2,3-triazol-4-yl)phenyl)dimethylphosphine oxide]: the IC50 against EGFRΔ19del/T790M/C797S worked out at 0.3 nM; on IGF1R, 134 nM; in the test on A431 (Homo sapiens, A-431, 72 h), 6630 nM; against EGFR WT, 24.5 nM. Besides, the GI50 in test [1] was found to be 14.5 nM; in test [2], 302 nM.
On to `COc1cnn(-c2ccc(Nc3nc(Nc4cc(OC)c(N5CCN(C)CC5)cc4C)ncc3Br)c(P(C)(C)=O)c2)c1` [Compound K-028, (2-((5-Bromo-2-((5-methoxy-2-methyl-4-(4-methylpiperazin-1-yl)phenyl)amino)pyrimidin-4-yl)amino)-5-(4-methoxy-1H-pyrazol-1-yl)phenyl)-dimethylphosphine oxide], for which the IC50 against EGFRΔ19del/T790M/C797S is 0.1 nM; at IGF1R, 39.1 nM; with A431 (Homo sapiens, A-431, 72 h), 1240 nM; against EGFR WT, 26 nM. The GI50 in test [1] is 5.7 nM; in test [2] it was 226 nM.
`CCc1cc(Nc2ncc(Cl)c(Nc3ccc(-c4cnccn4)cc3P(C)(C)=O)n2)c(OC)cc1N1CCC(N2CCN(C)CC2)CC1` [Compound 32, (2-((5-Chloro-2-((5-ethyl-2-methoxy-4-(4-(4-methylpiperazin-1-yl)piperidin-1-yl)phenyl)amino)pyrimidin-4-yl)amino)-5-(pyrazin-2-yl)phenyl)dimethylphosphine oxide]: the IC50 at EGFRΔ19del/T790M/C797S is 0.4 nM; at IGF1R it was 184 nM; in the test on A431 (Homo sapiens, A-431, 72 h), 749 nM; at EGFR WT, 19.3 nM. In addition, the GI50 in test [1] came out at 17.8 nM; in test [2] it was 196 nM.
Take `COc1cnn(-c2ccc(Nc3nc(Nc4cc(C)c(N5CCN(C6CCN(C)CC6)CC5)cc4OC)ncc3Br)c(P(C)(C)=O)c2)c1` [Compound K-088]: the IC50 was 0.3 nM against EGFRΔ19del/T790M/C797S; 170 nM on IGF1R; more than 10000 nM in the test on A431 (Homo sapiens, A-431, 72 h); 31 nM on EGFR WT. The GI50 worked out at 14.6 nM in test [1] and 285 nM in test [2].
In the case of `CCc1cc(Nc2ncc(Br)c(Nc3ccc(-c4cnn(C)c4)cc3P(C)(C)=O)n2)c(OC)cc1N1CCC(N2CCOCC2)CC1` [Compound K-042, (2-((5-Bromo-2-((5-ethyl-2-methoxy-4-(4-morpholinopiperidin-1-vi)phenyl)amino)pyrimidin-4-yl)amino)-5-(1-methyl-1-pyrazol-4-yl)phenyl)-dimethylphosphine oxide], the IC50 against EGFRΔ19del/T790M/C797S worked out at 0.4 nM; on IGF1R, 71 nM; with A431 (Homo sapiens, A-431, 72 h) it was 815 nM; at EGFR WT it was 15.9 nM. Further, the GI50 in test [1] amounted to 4.3 nM; in test [2], 206 nM.
`CCc1cc(Nc2ncc(Br)c(Nc3ccc(-c4cncc(OC)n4)cc3P(C)(C)=O)n2)c(OC)cc1N1CCC(N2CCN(C)CC2)CC1` [Compound 59, (2-((5-Bromo-2-((5-ethyl-2-methoxy-4-(4-(4-methylpiperazin-1-yl)piperidin-1-yl)phenyl)amino)pyrimidin-4-yl)amino)-5-(6-methoxypyrazin-2-yl)phenyl)dimethylphosphine oxide]: the IC50 on EGFRΔ19del/T790M/C797S came out at 1.3 nM; on IGF1R it was 395 nM; in the test with A431 it was 2300 nM; at EGFR WT, 41 nM. In addition, the GI50 stood at 26.3 nM in test [1] and 1290 nM in test [2].
Consider `CCc1cc(Nc2ncc(Br)c(Nc3ccc(-c4ccccc4)cc3P(C)(C)=O)n2)c(OC)cc1N1CCC(N2CCN(C)CC2)CC1` [Compound 1], for which the IC50 at EGFRΔ19del/T790M/C797S stood at 0.5 nM; on IGF1R, 91.5 nM; in the test on A431 (Homo sapiens, A-431, 72 h), 935 nM; against EGFR WT, 10.3 nM. The figures for the GI50 in test [1] and in test [2] were 2.2 nM and 171 nM, respectively.
For the compound `CCc1cc(Nc2ncc(Br)c(Nc3ccc(-n4cc(F)cn4)cc3P(C)(C)=O)n2)c(OC)cc1N1CCC(N2CCN(C)CC2)CC1` [Compound 44, (2-((5-Bromo-2-((5-ethyl-2-methoxy-4-(4-(4-methylpiperazin-1-yl)piperidin-1-yl)phenyl)amino)pyrimidin-4-yl)amino)-5-(4-fluoro-1H-pyrazol-1-yl)phenyl)dimethylphosphine oxide], the IC50 was determined as 0.2 nM on EGFRΔ19del/T790M/C797S; 124 nM on IGF1R; 2380 nM in the test with A431 (Homo sapiens, A-431, 72 h); 11.5 nM against EGFR WT. Further, the figures for the GI50 in test [1] and in test [2] were 9.5 nM and 166 nM, respectively.
Take `CCc1cc(Nc2ncc(Br)c(Nc3ccc(-c4ccccc4C)cc3P(C)(C)=O)n2)c(OC)cc1N1CCC(N2CCOCC2)CC1` [Compound K-049, (4-((5-Bromo-2-((5-ethyl-2-methoxy-4-(4-morpholinopiperidin-1-yl)phenyl)amino)pyrimidin-4-yl)amino)-2′-methyl-[1,1′-biphenyl]-3-yl)dimethylphosphine oxide]: the IC50 against EGFRΔ19del/T790M/C797S amounted to 0.8 nM; at IGF1R, 432 nM; in the test with A431 (Homo sapiens, A-431, 72 h), 1470 nM; on EGFR WT, 31.7 nM. Moreover, the figures for the GI50 in test [1] and in test [2] were 38.4 nM and 373 nM, respectively.
Regarding `COc1cc(Nc2ncc(Br)c(Nc3ccc(-c4cnn(C)c4)cc3P(C)(C)=O)n2)c(C)cc1N1CCOCC1` [Compound K-030, (2-((5-Bromo-2-((5-methoxy-2-methyl-4-morpholinophenyl)amino)pyrimidin-4-yl)amino)-5-(1-methyl-1H-pyrazol-4-yl)phenyl)dimethylphosphine oxide], the IC50 against EGFRΔ19del/T790M/C797S worked out at 0.2 nM; on IGF1R, 21.5 nM; in the test with A431 (Homo sapiens, A-431, 72 h) it was 615 nM; at EGFR WT, 7.8 nM. The GI50 came to 3.6 nM in test [1] and 132 nM in test [2].
`CCOc1cnc(-c2ccc(Nc3nc(Nc4cc(CC)c(N5CCC(N6CCN(C)CC6)CC5)cc4OC)ncc3Br)c(P(C)(C)=O)c2)nc1` [Compound 75]: the IC50 is 0.5 nM at EGFRΔ19del/T790M/C797S; 91 nM at IGF1R; more than 10000 nM in the test on A431 (Homo sapiens, A-431, 72 h); 16 nM against EGFR WT. The GI50 worked out at 16.8 nM in test [1] and 1010 nM in test [2].
For `CCCc1cc(Nc2ncc(Br)c(Nc3ccc(-c4cnn(C)c4)cc3P(C)(C)=O)n2)c(OC)cc1N1CCC(N2CCN(C)CC2)CC1` [Compound K-043, (2-((5-Bromo-2-((2-methoxy-4-(4-(4-methylpiperazin-1-yl)piperidin-1-yl)-5-propylphenyl)amino)pyrimidin-4-yl)amino)-5-(1-methyl-1H-pyrazol-4-yl)phenyl)dimethylphosphine oxide], the IC50 was found to be 0.5 nM against EGFRΔ19del/T790M/C797S; 30.2 nM on IGF1R; 456 nM in the test on A431 (Homo sapiens, A-431, 72 h); 14.2 nM at EGFR WT. Besides, the GI50 stood at 4.3 nM in test [1] and 127 nM in test [2].
`COc1cc(N2CCN(C)CC2)c(C)cc1Nc1ncc(Br)c(Nc2ccc(-c3nccs3)cc2P(C)(C)=O)n1` [Compound K-029, (2-((5-Bromo-2-((2-methoxy-5-methyl-4-(4-methylpiperazin-1-yl)phenyl)amino)pyrimidin-4-yl)amino)-5-(thiazol-2-yl)phenyl)dimethylphosphine oxide]: the IC50 on EGFRΔ19del/T790M/C797S stood at 0.3 nM; at IGF1R, 91 nM; with A431 (Homo sapiens, A-431, 72 h), 3180 nM; against EGFR WT, 60.6 nM. For the same compound, the values for the GI50 in test [1] and in test [2] were 15.2 nM and 52.1 nM, respectively.

As a reminder, the IC50 is the concentration that inhibits the measured activity by half.

These data come from US20220402948A1, “EGFR INHIBITOR, COMPOSITION AND PREPARATION METHOD THEREFOR” (BETTA PHARMACEUTICALS CO., LTD., priority 2019, published 2022).
